Holding throughout (format): cell-based
Holding throughout (conditions): Hepatitis C virus

The test system of one test is GT2a-7a-QC69 replicon. Description: Stable replicon assay, comparison to daclatasvir, GT2a-7a-QC69. An excerpt: The plasmid pSG-hRlucNeo-JFH1 was generated from pSG-Neo-JFH1 (Kato et al. 2003, Gastroentrology 125:1808-1817). A fragment containing the JFH-1 5′ NTR-hRluc-Neo gene and two unique restriction sites (AgeI and PmeI) was synthesized (Integrated DNA Technologies, Coralville, Iowa). The resulting plasmid was digested with AgeI and PmeI and the excised fragment (5′NTR-hRluc-Neo) was ligated into pSG-Neo-JFH1 digested with the same enzymes to generate pSG-hRlucNeo-JFH1. To allow expression of heterologous NS5A sequences, an NS5A shuttle vector was generated from pSG-Neo-JFH1, in which the entire coding sequence of NS5A plus the first eight codons of NS5B were replaced with an AfeI restriction site. This was done by Infusion cloning (Clontech, Mountain View, Calif.) from two PCR products that were generated using pSG-Neo-JFH1 as a template and the following primer pairs: […]
Stable HCV replicon cell lines were grown in complete media (Dulbecco's modified Eagle medium [DMEM], 2 mM L-glutamine, 0.1 mM essential amino acids, 1 mM sodium pyruvate, 10% fetal bovine serum) with the addition 500 μg/ml […] (G418). […] For stable and transient replicon assays, luciferase activity of compound-treated cells was measured relative to DMSO-treated cells after 72 h incubation using RENILLA-GLO™ Luciferase Assay (Promega). […]
In general terms: Replicon systems follow genome replication, usually without infectious particles.

Test [1] concerns HCV genotype 1a replicon, NS5A K24E. The test is described as follows: Transient replication assay, GT1a NS5A K24E.
The subject of test [2] is HCV genotype 1a replicon, NS5A K24R. Description: Transient replication assay, GT1a NS5A K24R.
Test [3] has as its system HCV genotype 1a replicon, NS5A M28T. The test is described as follows: Transient replication assay, GT1a NS5A M28T.
Test [4] concerns HCV genotype 1a replicon, NS5A M28V. The test is described as follows: Transient replication assay, GT1a NS5A M28V.
In test [5] the test system is HCV genotype 1a replicon, NS5A P32L. The test is described as follows: Transient replication assay, GT1a NS5A P32L.
Test [6] relates to HCV genotype 1a replicon, NS5A Q30E. The test is described as follows: Transient replication assay, GT1a NS5A Q30E.
In test [7] the test system is HCV genotype 1a replicon, NS5A Y93C. The test is described as follows: Transient replication assay, GT1a NS5A Y93C.
For test [8], the system named is HCV genotype 1a replicon, NS5A Y93H. Description: Transient replication assay, GT1a NS5A Y93H.
In test [9] the test system is HCV genotype 1a replicon, NS5A K24N Q30R. Description: Transient replication assay, GT1a NS5A K24N Q30R.
In test [10] the test system is HCV genotype 1a replicon, NS5A M28V Y93C. Description: Transient replication assay, GT1a NS5A M28V Y93C.

`COC(=O)N[C@H](C(=O)N1C[C@]2(CCCOC2)C[C@H]1c1ncc(-c2ccc(-c3ccc4c(ccc5nc([C@@H]6C[C@@H]7CCC[C@@H]7N6C(=O)[C@@H](NC(=O)OC)C(C)C)[nH]c54)c3)cc2)[nH]1)C(C)C` [Compound 16]: the EC50 came to 0.02 nM with GT2a-7a-QC69 replicon; 1.3 pM in test [1]; 1.2 pM in test [2]; 0.049 nM in [3]; 1.5 pM in [4]; 0.046 nM in test [5]. Besides, the EC50 in test [6] came to 0.74 nM; in [7], 0.22 nM; in [8], 10 nM; in test [9], 1.2 nM; in [10] it was 1 nM.

In the case of `COC(=O)N[C@H](C(=O)N1CCC[C@H]1c1nc(-c2ccc(-c3ccc(-c4c[nH]c([C@@H]5CCCN5C(=O)[C@@H](NC(=O)OC)C(C)C)n4)cc3)cc2)c[nH]1)C(C)C` [Daclatasvir, reference compound], the EC50 in the test on GT2a-7a-QC69 replicon stood at 0.016 nM; in test [1], 2.2 pM; in [2], 11 pM; in test [3] it was 3.4 nM; in [4] it was 7.3 pM; in test [5], 1.9 nM. The EC50 in [6] is 81.5 nM; in [7] it was 3.2 nM; in test [8], 65 nM; in test [9] it was 8 nM; in test [10], 3.5 nM.

The EC50 is the concentration at which the effect is half-maximal. Low readings indicate greater potency, high ones weaker potency.
